{"source": "patent US20130296393A1", "about": "“METHOD FOR CONTROLLING CLUBROOT” (ISHIHARA SANGYO KAISHA, LTD., priority 2011, published 2013)", "assay_type_in_all_cases": "in vivo", "key": {"Plasmodiophora brassicae [1]": {"system": "Plasmodiophora brassicae", "assay": "Cabbage clubroot control test, pot test, cyazofamid vs chlorothalonil (Example 3 / Comparative Example 3)", "design": "key to Disease control value: control value = (1 − treated/control severity) × 100; key to Disease severity: severity = Σ(plants × index 0-4)/(plants × 4) × 100", "details": "for Disease control value / Disease severity: 57 days after settled planting", "excerpt": "(§1) Disease severity={Σ(number of each index of diseased plants×disease index)/(number of plants surveyed×4)}×100\n(§2) Disease control value={1−(treatment disease severity/control disease severity)}×100\n(§3) 0: No adhesion of clubroot, 1: clubroot adhesion to lateral root, 2: clubroot adhesion to the entire lateral root or clubroot adhesion to a part of tap root, 3: adhesion of large clubroot to tap root, and 4: clubroot adhesion to the entire tap root.\nA spore suspension of Plasmodiophora brassicae (fungus density: 1×10^5 fungi/g dry soil) was inoculated into a sterilization soil adjusted to pH of 6.0 with Sandoseto and after introducing the resulting test soil into a 1/5000 a pot, a cabbage (variety: Okina) seedling grown in a cell seedling tray (128 cells/seedling box) was settled-planted by establishing five plantings for each test section having a size of 0.02 m^2 for one plant. Immediately, 4 days, 7 days and 14 days after settled planting, the chemical solution for spraying prepared by the same method as in Example 1(1) was drenched into the soil in a ratio of 250 ml/plant. Fifty-seven days after the settled planting, the number of each index of clubroot adhesion to the root was investigated. For comparison, the same test was carried out on a control section where a soil drench treatment with the chemical solution for spraying was not applied.\nA chemical solution for spraying in a concentration of 800 ppm was prepared by diluting 40% chlorothalonil (Daconil 1000 [trade name], manufactured by SDS K.K.) with water.\nThe test was carried out by the same procedure as in Example 3 except that the chemical solution (cyazofamid) for spraying was replaced by the chemical solution (chlorothalonil) for spraying prepared in Comparative Example 3(1).\n(§4) The disease severity and disease control value of Example 3 and Comparative Example 3 were determined by the same methods as in Example 1 and Comparative Example 1. In addition, the weight of cabbage in the aerial part was measured. Furthermore, the test result was shown by the average value of five plantings."}, "Plasmodiophora brassicae [2]": {"system": "Plasmodiophora brassicae", "assay": "Cabbage clubroot control test, pot test (Example 1 / Comparative Example 1)", "details": "0.3% dust formulation 30 kg/10 a soil incorporation just before settled planting", "description": "A chemical solution for spraying at 50 ppm was prepared by diluting 9.4% w/w cyazofamid (Ranman [trade name] flowable, manufactured by Ishihara Sangyo Kaisha Ltd.) with water.\nA spore suspension of Plasmodiophora brassicae (fungus density: 1×10^5 fungi/g dry soil) was inoculated into a sterilization soil adjusted to pH of 6.2 with Sandoseto and after introducing the resulting test soil into a 1/5000 a pot, a cabbage (variety: Okina) seedling grown in a cell seedling tray (128 cells/seedling box) was settled-planted by establishing five plantings for each test section having a size of 0.02 m^2 per one plant. Just after the settled planting, 3 days, 7 days, 10 days and 14 days after the settled planting, the chemical solution for spraying prepared in (1) was applied by soil drench at a ratio of 250 ml/plant. Sixty days after the settled planting, the number of each index of clubroot adhesion to the root was investigated. For comparison, the same test was carried out on a control section where a soil drench treatment with the chemical solution for spraying was not applied.\n(§5) The test was carried out by the same method as in Example 1(2) except that in place of the soil drench treatment with the chemical solution for spraying, 30 kg/10 a of 0.3% flusulfamide (dust formulation of Nebijin [trade name], manufactured by Mitsui Chemicals Agro, Inc.) was applied to the test soil just before settled planting and incorporated into the soil by means of a small mixer (interfusion depth: 15 cm).\nIn Example 1 and Comparative Example 1, the adhesion of clubroot was investigated by pulling out the root of cabbage. The adhesion of clubroot was investigated by calculating the disease severity using the following formula. In addition, the weight of cabbage in the aerial part was measured. Furthermore, the test result was shown by the average value of five plantings.\nas §1, §2, §3"}, "Plasmodiophora brassicae [3]": {"system": "Plasmodiophora brassicae", "assay": "Influence of rainfall on clubroot control effect in cabbage (Example 4 / Comparative Example 4)", "details": "pot; for Weight in the aerial part / Disease control value / Disease severity: 0.3% dust formulation 30 kg/10 a soil incorporation just before settled planting; for Disease control value / Disease severity: 67 days after settled planting", "description": "as §1, §2, §3\nThe test was carried out by the same method as in Example 3 except for preparing an area subjected to a rainfall treatment of 20 mm by means of a rainfall apparatus (a treatment at a rate of 10 mm/hour for 2 hours) the day before treatment, and an area not subjected to the rainfall treatment. Sixty-seven days after the settled planting, the number of each index of clubroot adhesion to the root was investigated. For comparison, the same test was carried out on a control section where a soil drench treatment with the chemical solution for spraying was not applied.\nas §5, with “4” for “1(2)”, “before the” for “before”\nas §4, with “4” for “3”"}, "[4]": {"details": "800 ppm soil drench 250 ml/plant 4 days after settled planting"}, "[5]": {"details": "800 ppm soil drench 250 ml/plant 7 days after settled planting"}, "[6]": {"details": "800 ppm soil drench 250 ml/plant 14 days after settled planting"}, "[7]": {"details": "800 ppm soil drench 250 ml/plant just after settled planting"}, "[8]": {"details": "800 ppm soil drench after settled planting"}, "[9]": {"details": "with rainfall treatment, dust formulation soil incorporation just before settled planting"}}}
{"smiles": "N#Cc1c(Cl)c(Cl)c(Cl)c(C#N)c1Cl", "note": "[chlorothalonil]", "values": [{"measurement": "Weight in the aerial part", "setting": "Plasmodiophora brassicae [1]; [4]", "result": 92, "unit": "g"}, {"measurement": "Disease control value", "setting": "Plasmodiophora brassicae [1]; [4]", "result": 25}, {"measurement": "Disease severity", "setting": "Plasmodiophora brassicae [1]; [4]", "result": 60}, {"measurement": "Weight in the aerial part", "setting": "Plasmodiophora brassicae [1]; [5]", "result": 69, "unit": "g"}, {"measurement": "Disease control value", "setting": "Plasmodiophora brassicae [1]; [5]", "result": 0}, {"measurement": "Disease severity", "setting": "Plasmodiophora brassicae [1]; [5]", "result": 90}, {"measurement": "Weight in the aerial part", "setting": "Plasmodiophora brassicae [1]; [6]", "result": 70, "unit": "g"}, {"measurement": "Disease control value", "setting": "Plasmodiophora brassicae [1]; [6]", "result": 0}, {"measurement": "Disease severity", "setting": "Plasmodiophora brassicae [1]; [6]", "result": 90}, {"measurement": "Weight in the aerial part", "setting": "Plasmodiophora brassicae [1]; [7]", "result": 96, "unit": "g"}, {"measurement": "Disease control value", "setting": "Plasmodiophora brassicae [1]; [7]", "result": 56}, {"measurement": "Disease severity", "setting": "Plasmodiophora brassicae [1]; [7]", "result": 35}, {"measurement": "Control effect", "setting": "Plasmodiophora brassicae [1]; [8]", "result": "a control effect which is sufficient for practical use was not obtained"}, {"measurement": "Effect of the disease on weight in the aerial part", "setting": "Plasmodiophora brassicae [1]; [8]", "result": "greatly affected by the disease"}]}
{"smiles": "O=[N+]([O-])c1ccc(NS(=O)(=O)c2ccc(Cl)c(C(F)(F)F)c2)c(Cl)c1", "note": "[flusulfamide]", "values": [{"measurement": "Weight in the aerial part", "setting": "Plasmodiophora brassicae [2]", "result": 173, "unit": "g"}, {"measurement": "Disease control value", "setting": "Plasmodiophora brassicae [2]; 60 days after settled planting", "result": 100}, {"measurement": "Disease severity", "setting": "Plasmodiophora brassicae [2]; 60 days after settled planting", "result": 0}, {"measurement": "Weight in the aerial part", "setting": "Plasmodiophora brassicae [3]; with rainfall treatment 20 mm", "result": 104, "unit": "g"}, {"measurement": "Disease control value", "setting": "Plasmodiophora brassicae [3]; with rainfall treatment 20 mm", "result": 50}, {"measurement": "Disease severity", "setting": "Plasmodiophora brassicae [3]; with rainfall treatment 20 mm", "result": 35}, {"measurement": "Control effect", "setting": "Plasmodiophora brassicae [3]; [9]", "result": "a practical control effect was not obtained"}, {"measurement": "Effect of the disease on weight in the aerial part", "setting": "Plasmodiophora brassicae [3]; [9]", "result": "greatly affected by the disease"}, {"measurement": "Weight in the aerial part", "setting": "Plasmodiophora brassicae [3]; without rainfall treatment", "result": 118, "unit": "g"}, {"measurement": "Disease control value", "setting": "Plasmodiophora brassicae [3]; without rainfall treatment", "result": 100}, {"measurement": "Disease severity", "setting": "Plasmodiophora brassicae [3]; without rainfall treatment", "result": 0}]}
